“Also recorded” adds a separate entry of the source.

The assay relates to serotonin swelling of rat. Nature of the assay: Inhibition of serotonin swelling of rat sole after application to the skin. It is filed as in vivo. To be noted: for Average swelling ratio (%) / Average inhibition ratio (%): rat right sole, measured 30 min after injection; for Average swelling ratio (%): 1.5 g of 2% xanthan gum solution with 3% test sample applied 2 h before serotonin injection, control 30; for Average inhibition ratio (%): 3% test sample applied 2 h before serotonin injection. The protocol:
For clarifying the effect of the anti-inflammation analgesic preparation of the present invention, the effect of the anti-inflammation analgesic preparation on inhibition of serotonin swelling is shown below.
1.5 Grams of a 2% xanthan gum solution containing a test sample of having a concentration of 3% was applied to a portion ranging from a right femoral portion to a sole portion (bottom portion) of a rat. Two hours after the test sample was applied, a solution of 3 μg/ml of serotonin in 0.1 ml of a saline solution was hypodermically injected into the sole of the right foot. Thirty minutes after the injection of the inflammatory substance, the swelling of the sole of the right leg was measured to determine a swelling ratio. When serotonin as an inflammatory substance involving the generation of a pain is injected, a swelling involving a pain is caused.

For the compound `O=C(O)COc1nn(Cc2ccccc2)c2ccccc12` [Bendazac, reference compound], the “Average swelling ratio (%)” value was 30% and the “Average inhibition ratio (%)” value was found to be 0%. Moreover, for the setting “rat, 3% test sample applied to skin”, the “Inhibition of serotonin swelling (in words)” value is “failed to inhibit the above inflammation reaction; also recorded: showed no effect on the swelling and was ineffective”.

Take `CCCCCCCCCCCCOC1=C(O)C(=O)O[C@@H]1[C@@H](O)CO` [L-3-0-dodecylascorbic acid]: the “Average swelling ratio (%)” value is listed as 14% and the “Average inhibition ratio (%)” value was 54%.

With `CCCCCCCCCCCCC(=O)COC1=C(O)C(=O)O[C@@H]1[C@@H](O)CO` [L-3-0-dodecylcarbonylmethylascorbic acid, L-3-0-dodecylcarbonyl-methylascorbic acid], the “Average swelling ratio (%)” value was 13% and the “Average inhibition ratio (%)” value amounted to 57%.

`CCOC1=C(O)C(=O)O[C@@H]1[C@@H](O)CO` [L-3-0-ethylascorbic acid]: the “Average swelling ratio (%)” value is reported as 12% and the “Average inhibition ratio (%)” value was 76%.

Consider `CCCCCCCCCCCCCCCCCCOC(=O)COC1=C(O)C(=O)O[C@@H]1[C@@H](O)CO` [L-3-0-octadecyloxycarbonylmethylascorbic acid], for which the “Average swelling ratio (%)” value is on record as 15% and the “Average inhibition ratio (%)” value worked out at 50%.

For `O=C1O[C@H]([C@@H](O)CO)C([O-])=C1OP(=O)(O)O.O=C1O[C@H]([C@@H](O)CO)C([O-])=C1OP(=O)(O)O.[Mg+2]` [L-ascorbic acid-2-phosphoric acid ester magnesium salt], the “Average swelling ratio (%)” value amounted to 28% and the “Average inhibition ratio (%)” value is recorded as 7%.
